Source: PubChem BioAssay AID1259407 (Chemical Carcinogenesis Research Information System (CCRIS), 2018)
Active and inactive are the calls of the source. No rule for the calls is given here.

Tested on: CCRIS mutagenicity, Ames/micronucleus/aberration tests
Assay: CCRIS mutagenicity studies
[1] = Test System: AMES SALMONELLA TYPHIMURIUM, Strain/Indicator: TA98, Metabolic Activation: NONE, Method: STANDARD PLATE
[2] = Test System: AMES SALMONELLA TYPHIMURIUM, Strain/Indicator: TA100, Metabolic Activation: NONE, Method: STANDARD PLATE
[3] = Test System: AMES SALMONELLA TYPHIMURIUM, Strain/Indicator: TA1537, Metabolic Activation: NONE, Method: STANDARD PLATE
[4] = Test System: AMES SALMONELLA TYPHIMURIUM, Strain/Indicator: TA1538, Metabolic Activation: NONE, Method: STANDARD PLATE
[5] = Test System: AMES SALMONELLA TYPHIMURIUM, Strain/Indicator: TA98, Metabolic Activation: HAMSTER, LIVER, S-9, AROCLOR 1254, Method: STANDARD PLATE
[6] = Test System: AMES SALMONELLA TYPHIMURIUM, Strain/Indicator: TA98, Metabolic Activation: RAT, LIVER, S-9, AROCLOR 1254, Method: STANDARD PLATE
[7] = Test System: AMES SALMONELLA TYPHIMURIUM, Strain/Indicator: TA100, Metabolic Activation: RAT, LIVER, S-9, AROCLOR 1254, Method: STANDARD PLATE
[8] = Test System: AMES SALMONELLA TYPHIMURIUM, Strain/Indicator: TA1535, Metabolic Activation: NONE, Method: STANDARD PLATE
[9] = Test System: AMES SALMONELLA TYPHIMURIUM, Strain/Indicator: TA1535, Metabolic Activation: RAT, LIVER, S-9, AROCLOR 1254, Method: STANDARD PLATE
[10] = Test System: AMES SALMONELLA TYPHIMURIUM, Strain/Indicator: TA100, Metabolic Activation: NONE, Method: PREINCUBATION

Measured: mutagenic call

CC(=O)Nc1ccc2[nH]c3ccccc3c2c1[N+](=O)[O-]
active: [1] active; positive | Test System: AMES SALMONELLA TYPHIMURIUM, Strain/Indicator: TA98, Metabolic Activation: RAT, LIVER, S-9, PHENOBARBITAL, Method: STANDARD PLATE active; positive | [4] active; positive | Test System: AMES SALMONELLA TYPHIMURIUM, Strain/Indicator: TA1538, Metabolic Activation: RAT, LIVER, S-9, PHENOBARBITAL, Method: STANDARD PLATE active; positive
inactive: [2] inactive; negative | Test System: AMES SALMONELLA TYPHIMURIUM, Strain/Indicator: TA100, Metabolic Activation: RAT, LIVER, S-9, PHENOBARBITAL, Method: STANDARD PLATE inactive; negative | [3] inactive; negative | Test System: AMES SALMONELLA TYPHIMURIUM, Strain/Indicator: TA1537, Metabolic Activation: RAT, LIVER, S-9, PHENOBARBITAL, Method: STANDARD PLATE inactive; negative | Test System: AMES SALMONELLA TYPHIMURIUM, Strain/Indicator: TA1977, Metabolic Activation: NONE, Method: STANDARD PLATE inactive; negative | Test System: AMES SALMONELLA TYPHIMURIUM, Strain/Indicator: TA1977, Metabolic Activation: RAT, LIVER, S-9, PHENOBARBITAL, Method: STANDARD PLATE inactive; negative

Nc1ccc(-c2cc([N+](=O)[O-])c(N)c(Cl)c2Cl)cc1
inactive: Test System: Ames Salmonella typhimurium, Strain/Indicator: TA100, Metabolic Activation: None, Method: Preincubation inactive; negative | Test System: Ames Salmonella typhimurium, Strain/Indicator: YG1029, Metabolic Activation: None, Method: Preincubation inactive; negative
active: Test System: Ames Salmonella typhimurium, Strain/Indicator: TA98, Metabolic Activation: None, Method: Preincubation active; positive. weak response. | Test System: Ames Salmonella typhimurium, Strain/Indicator: TA98, Metabolic Activation: Rat, Liver, S-9, Phenobarbital and 5,6-benzoflavone, Method: Preincubation active; positive | Test System: Ames Salmonella typhimurium, Strain/Indicator: TA100, Metabolic Activation: Rat, Liver, S-9, Phenobarbital and 5,6-benzoflavone, Method: Preincubation active; positive | Test System: Ames Salmonella typhimurium, Strain/Indicator: YG1024, Metabolic Activation: None, Method: Preincubation active; positive | Test System: Ames Salmonella typhimurium, Strain/Indicator: YG1024, Metabolic Activation: Rat, Liver, S-9, Phenobarbital and 5,6-benzoflavone, Method: Preincubation active; positive | Test System: Ames Salmonella typhimurium, Strain/Indicator: YG1029, Metabolic Activation: Rat, Liver, S-9, Phenobarbital and 5,6-benzoflavone, Method: Preincubation active; positive

COc1cc2c(cc1O)CCN[C@]21CS[C@@H]2c3c(OC(C)=O)c(C)c4c(c3[C@H](COC1=O)N1[C@@H]2[C@H]2c3c(cc(C)c(OC)c3O)C[C@@H]([C@@H]1O)N2C)OCO4
inactive: [1] inactive; negative | Test System: AMES SALMONELLA TYPHIMURIUM, Strain/Indicator: TA100, Metabolic Activation: HAMSTER, LIVER, S-9, AROCLOR 1254, Method: STANDARD PLATE inactive; negative | [2] inactive; negative | [7] inactive; negative
active: [5] active; positive | [6] active; positive | Test System: Mouse lymphoma, Strain/Indicator: L5178Y (tk+/tk-), Metabolic Activation: None, Method: Suspension/plate active; positive | Test System: Mouse lymphoma, Strain/Indicator: L5178Y (tk+/tk-), Metabolic Activation: Rat, Liver, S-9, Aroclor 1254, Method: Suspension/plate active; positive

Cc1ccc(N=Nc2ccc(N(CCO)CCO)cc2)cc1
inactive: [5] inactive; negative | [1] inactive; negative | Test System: AMES SALMONELLA TYPHIMURIUM, Strain/Indicator: TA98, Metabolic Activation: RAT, LIVER, S-9, AROCLOR 1254, Method: PREINCUBATION inactive; negative | [6] inactive; negative | [2] inactive; negative | [7] inactive; negative | [8] inactive; negative | [9] inactive; negative | [3] inactive; negative | Test System: AMES SALMONELLA TYPHIMURIUM, Strain/Indicator: TA1537, Metabolic Activation: RAT, LIVER, S-9, AROCLOR 1254, Method: STANDARD PLATE inactive; negative | [4] inactive; negative | Test System: AMES SALMONELLA TYPHIMURIUM, Strain/Indicator: TA1538, Metabolic Activation: RAT, LIVER, S-9, AROCLOR 1254, Method: STANDARD PLATE inactive; negative

O=[N+]([O-])c1ccccc1CBr
inactive: Test System: AMES SALMONELLA TYPHIMURIUM, Strain/Indicator: TA98, Metabolic Activation: NONE, Method: PREINCUBATION inactive; negative | [10] inactive; negative | Test System: AMES SALMONELLA TYPHIMURIUM, Strain/Indicator: TA100, Metabolic Activation: RAT, LIVER, S-9, AROCLOR 1254, Method: PREINCUBATION inactive; negative

CC1CO1 (stereo not drawn)
active: End Point: IN VITRO CHROMOSOMAL ABERRATIONS, Test System: CHL CELLS, Metabolic Activation: NONE active; positive (structural changes) | End Point: IN VITRO CHROMOSOMAL ABERRATIONS, Test System: CHL CELLS, Metabolic Activation: RAT, LIVER, S-9, SODIUM PHENOBARBITAL AND 5,6-BENZOFLAVONE active; positive (structural changes) | End Point: IN VITRO CHROMOSOMAL ABERRATIONS, Test System: CHO CELLS, Metabolic Activation: NONE active; positive; weak response | Test System: AMES SALMONELLA TYPHIMURIUM, Strain/Indicator: TA100, Metabolic Activation: HAMSTER, LIVER, S-9, AROCLOR 1254 (10%), Method: PREINCUBATION active; positive | Test System: AMES SALMONELLA TYPHIMURIUM, Strain/Indicator: TA100, Metabolic Activation: NONE, Method: FLASK VAPORIZATION active; positive | [10] active; positive | [2] active; positive | Test System: AMES SALMONELLA TYPHIMURIUM, Strain/Indicator: TA100, Metabolic Activation: NONE, Method: SUSPENSION/PLATE active; positive | Test System: AMES SALMONELLA TYPHIMURIUM, Strain/Indicator: TA100, Metabolic Activation: RAT, LIVER, S-9, AROCLOR 1254 (10%), Method: PREINCUBATION active; positive | Test System: AMES SALMONELLA TYPHIMURIUM, Strain/Indicator: TA100, Metabolic Activation: RAT, LIVER, S-9, AROCLOR 1254, Method: FLASK VAPORIZATION active; positive | [7] active; positive | Test System: AMES SALMONELLA TYPHIMURIUM, Strain/Indicator: TA1535, Metabolic Activation: HAMSTER, LIVER, S-9, AROCLOR 1254 (10%), Method: PREINCUBATION active; positive | Test System: AMES SALMONELLA TYPHIMURIUM, Strain/Indicator: TA1535, Metabolic Activation: NONE, Method: FLASK VAPORIZATION active; positive | Test System: AMES SALMONELLA TYPHIMURIUM, Strain/Indicator: TA1535, Metabolic Activation: NONE, Method: PREINCUBATION active; positive | [8] active; positive | Test System: AMES SALMONELLA TYPHIMURIUM, Strain/Indicator: TA1535, Metabolic Activation: NONE, Method: SUSPENSION/PLATE active; positive | Test System: AMES SALMONELLA TYPHIMURIUM, Strain/Indicator: TA1535, Metabolic Activation: RAT, LIVER, S-9, AROCLOR 1254 (10%), Method: PREINCUBATION active; positive | Test System: AMES SALMONELLA TYPHIMURIUM, Strain/Indicator: TA1535, Metabolic Activation: RAT, LIVER, S-9, AROCLOR 1254, Method: FLASK VAPORIZATION active; positive | [9] active; positive | Test System: Ames Salmonella typhimurium, Strain/Indicator: YG7108, Metabolic Activation: None, Method: Standard plate active; positive | Test System: MOUSE LYMPHOMA, Strain/Indicator: L5178Y (TK+/TK-), Metabolic Activation: NONE, Method: SUSPENSION/PLATE active; positive

CCCC(=O)N=c1sn(C(=O)CCC)c2ccc([N+](=O)[O-])cc12
active: Test System: AMES SALMONELLA TYPHIMURIUM, Strain/Indicator: TA100, Metabolic Activation: S-9, Method: STANDARD PLATE active; positive
